From patent publication US7595326B2, “Synthesis of novel tubulin polymerization inhibitors: benzoylphenylurea (BPU) sulfur analogs” (Champions Biotechnology, Inc., priority 2005, dated 2009) come the findings set out here.

One may read the IC50 as the concentration needed to halve the response being measured. High values mean weaker potency in that assay, low ones greater potency in that assay.

The test system of one experiment is Panc430. Briefly: MTT growth inhibition, pancreatic cancer cell line Panc430. Type of experiment: cell-based. The conditions noted are these: for IC50: Pancreatic cancer cell, MTT, 96-hours treatment, average of three independent experiments. The protocol:
(§1) Eight of these analogs 6d, 6h, 6n, 6g, 7b, 7d, 8g, and 8h were tested for their cytotoxicity in seven pancreatic cell lines ASPC1, Panc1, Panc203, Panc430, Pane 1005, MiaPaca2, and HS766T using MTT assay. Cells were trypsinized, seeded at 5×10^3 cells/well in 96-well plate and allowed to grow for 24 hours before the treatment with exponential increasing concentrations of drugs in the presence of 10% FBS. After a 96-hours period of treatment, 20 μl of MTT solution (5 mg/ml in PBS) were added to each well, and the plates were then incubated for 3 hours at 37° C. Medium was then replaced with 100 μl of DMSO per well. Plates were shaken and the optical density was measured at 570 nm using a multiwell plate reader (Bio-Rad, Model 550, Bio-Rad Inc., Hercules, Calif.). Each experiment was performed in triplicate for each drug concentration and was carried out independently at least 3 times. The IC50 value was defined as the concentration needed for a 50% reduction in the absorbance calculated based on the survival curves. Response to drug treatment was assessed by standardizing treatment groups to untreated controls. Compounds activity was compared with compound 1.
(§2) Biology. Table 2 (Growth Inhibition of Pancreatic Cancer Cell Lines by BPU and BPTU Analogues (IC50)^a)compares the cytotoxicity of a series of new derivatives against a panel of seven pancreatic cancer cell lines, as determined by MTT assay. See, Mosmann, T., J. Immunol. Methods 65:55-63 (1983).

The test system of a further experiment is HS766. Kind of experiment: MTT growth inhibition, pancreatic cancer cell line HS766. The following applies: Homo sapiens, Hs 766, 96-hours treatment, average of three independent experiments. The experiment is classed as cell-based. The protocol:
as §1, §2

The subject of a further experiment is Miapaca2. Briefly: MTT growth inhibition, pancreatic cancer cell line Miapaca2. The experiment is classed as cell-based. The following applies: for IC50: Homo sapiens, MIA PaCa-2, MTT, 96-hours treatment, average of three independent experiments. The protocol: as §1, §2
The subject of a further experiment is ASPC1. Briefly: MTT growth inhibition, pancreatic cancer cell line ASPC1. Type of experiment: cell-based. The conditions noted are these: Homo sapiens, 96-hours treatment, average of three independent experiments. The protocol: as §1, §2
For the next experiment, the system named is Panc203. Kind of experiment: MTT growth inhibition, pancreatic cancer cell line Panc203. The experiment is classed as cell-based. The following applies: for IC50: Homo sapiens, Panc203, MTT, 96-hours treatment, average of three independent experiments. As to the method:
as §1, §2

A further experiment concerns Panc1005. Briefly: MTT growth inhibition, pancreatic cancer cell line Panc1005. Type of experiment: cell-based. The following applies: Homo sapiens, 96-hours treatment, average of three independent experiments. As to the method: as §1, §2
Another experiment relates to Panc1. Kind of experiment: MTT growth inhibition, pancreatic cancer cell line Panc1. Type of experiment: cell-based. The conditions noted are these: for IC50: Homo sapiens, PANC-1, MTT, 96-hours treatment, average of three independent experiments. The protocol:
as §1, §2

The next experiment has as its system CWR22R. Kind of experiment: MTT growth inhibition, prostate cancer cell line CWR22R. The experiment is classed as cell-based, human. The following applies: for IC50: Homo sapiens, 22Rv1, MTT, average of three independent experiments. The protocol: (§3) This MTT assay was carried using human prostate cancer cell lines CWR22R, LAPC-4 and LnCap using Promega cell titer 96 nonradioactive cell proliferation kit. Cells were trypsinized and centrifuged at 1000 rpm for 5 minutes and the supernatant was aspirated. Cells were resuspended with HBSS to a concentration of […]. Cell suspension was diluted in serum containing medium to plate 2000 cells/well/0.2 ml. Cell suspension was transferred to sterile solution basin. Cells were plated using multichannel pipette set at 200 μl and incubated overnight for attachment. One plate was prepared for day 0 MTT assay as follows: 100 μl of media was removed from each well using multichannel pipette and 15 μl of MTT reagent was added. Plates were incubated at 37° C. for 4 hrs. 100 μl of STOP solution was added to each well and incubated at room temperature for 1 hour. Absorbance was measured at 570 and 650 nm on plate reader. All the media from the remaining plates were carefully removed and the cells were treated with the media containing drug. MTT assays were done on days 0, 3, 5 and 7. In the preliminary screening four BPU sulfur analogs 6l, 6h, 6n, 7d and 8h were screened and their activity was compared with compound 1.
(§4) Compounds with significant inhibitory activity in pancreatic cancer cells were further evaluated against prostate cancer cell lines in the MTT assay, (Mosmann, T., J. Immunol. Methods 65:55-63 (1983)) and the results were compared to those for compound 1 (Table 3).

The next experiment concerns LAPC-4. Briefly: MTT growth inhibition, prostate cancer cell line LAPC-4. Type of experiment: cell-based, human. The following applies: for IC50: Homo sapiens, LAPC4, MTT, average of three independent experiments. As to the method:
as §3, §4

For another experiment, the system named is LnCaP. Kind of experiment: MTT growth inhibition, prostate cancer cell line LnCaP. The conditions noted are these: for IC50: Homo sapiens, LNCaP, MTT, average of three independent experiments. Type of experiment: cell-based, human. As to the method: as §3, §4
Experiment [1] relates to seven pancreatic cell lines. Briefly: MTT growth inhibition, panel of seven pancreatic cancer cell lines. Type of experiment: cell-based. The following applies: for times more potent than compound 1, pancreatic cell lines: MTT, seven pancreatic cell lines. The protocol: as §1, §2
Experiment [2] relates to tubulin (colchicine binding site). Kind of experiment: Inhibition of [3H]colchicine binding.
Experiment [3] deals with prostate cancer cell lines CWR22R, LAPC-4 and LnCap. Kind of experiment: MTT growth inhibition, prostate cancer cell lines (panel). Type of experiment: cell-based, human. The conditions noted are these: preliminary screening. As to the method:
as §3, with “In the preliminary screening four BPU sulfur analogs 6l, 6h, 6n, 7d and 8h were screened and their activity was compared with compound 1.” left out
as §4

In the next experiment the test system is MCF-7 cells. Briefly: Apoptosis of MCF-7 cells. The following applies: 48 hours. The experiment is classed as cell-based.

As for `N=C(NC(=O)c1ccccc1)Oc1ccc(Sc2ncc(Br)cn2)cc1` [Compound 6g], the IC50 in the experiment with Panc430 was 2 µM; in the experiment with HS766, 5.5 µM; in the experiment with Miapaca2, 5 µM; with ASPC1, over 10 µM; in the experiment on Panc203 it was 7.5 µM; with Panc1005, over 10 µM. For the same molecule, the IC50 in the experiment with Panc1 is over 10 µM.

For the molecule `Nc1ccccc1C(=O)NC(=O)Nc1ccc(Sc2ncccn2)cc1` [Compound 7b], the IC50 in the experiment on Panc430 was 6.5 µM; with HS766, 8 µM; with Miapaca2, 7 µM; in the experiment on ASPC1, 6 µM; in the experiment on Panc203 it was 5.5 µM; in the experiment with Panc1005 it was over 10 µM. The same molecule registered an IC50 in the experiment with Panc1 of 7.5 µM.

As for `O=C(NC(=S)Nc1ccc(Sc2ncc(Br)cn2)cc1)c1ccccc1` [Compound 6h], the IC50 with CWR22R is over 10 µM; with Panc430 it was 7.5 µM; in the experiment on HS766, 8.5 µM; with LAPC-4, 6 µM; in the experiment on LnCaP it was over 10 µM; in the experiment on Miapaca2, 10 µM. Besides, the half-inhibitory concentration (IC50) in the experiment with ASPC1 was 10 µM; in the experiment on Panc203, over 10 µM; in the experiment on Panc1005, over 10 µM; in the experiment on Panc1 it was 9.5 µM.

Turning to `O=C(NC(=O)c1ccccc1[N+](=O)[O-])Nc1ccc(Sc2ncccn2)cc1` [Compound 6l], the half-maximal inhibitory concentration (IC50) is 5 µM in the experiment on CWR22R, 0.6 µM in the experiment on LAPC-4 and 0.5 µM in the experiment on LnCaP.

Turning to `O=C(NC(=O)c1ccccc1[N+](=O)[O-])Nc1ccc(Sc2ncc(Br)cn2)cc1` [Compound 6n, 1-[4-(5-Bromopyrimidin-2-ylsulfanyl)phenyl]-3-(2-nitrobenzoyl)-urea], in the experiment with CWR22R (sulfide versus ether link), the “increase in potency of 6n over 6m, CWR22R” value is 100 fold. In experiment [1], the “times more potent than compound 1, pancreatic cell lines” value came to 20 time. Further, the “binding to the colchicine binding site (in words)” value in experiment [2] is “poor binding affinity”. The “increase in potency of 6n over 6m, LnCap” value in the experiment with LnCaP (sulfide versus ether link) stood at 20 fold. For the same molecule, the “times more potent than compound 1, prostate cancer cell lines” value in experiment [3] worked out at 20 times. Further, in the experiment with Miapaca2 (sulfide versus ether link), the “increase in potency of 6n over 6m, Mia-paca2” value was found to be 8 fold. Moreover, in the experiment with MCF-7 cells, the “killing of MCF-7 cells compared with 1 (in words)” value is recorded as “more potent than 1”. In the experiment with Panc203 (sulfide versus ether link), the “increase in potency of 6n over 6m, Panc203” value was 14 fold. The “increase in potency of 6n over 6m, Panc1” value in the experiment on Panc1 (sulfide versus ether link) was 8 fold.

Regarding `O=C(NC(=O)c1ccccc1[N+](=O)[O-])Nc1ccc([S+]([O-])c2ncc(Br)cn2)cc1` (stereo not shown) [Compound 8g, 1-[4-(5-Bromopyrimidine-2-sulfinyl)phenyl]-3-(2-nitrobenzoyl)-urea], the IC50 was 5.5 µM in the experiment with Panc430; 2.5 to 8 µM in experiment [1] (Pancreatic cancer cell, all the cell lines of the panel); 6.5 µM in the experiment with HS766; 8 µM in the experiment with Miapaca2; 2.5 µM with ASPC1; 5.5 µM in the experiment on Panc203. The 50% inhibitory concentration (IC50) in the experiment with Panc1005 was determined as 5.5 µM; with Panc1, 6.5 µM.

Turning to `O=C(NC(=O)c1ccccc1[N+](=O)[O-])Nc1ccc(Oc2nccc(Br)n2)cc1` [Compound 6m], in [2], the “binding to the colchicine binding site (in words)” value is “poor binding affinity”.

Regarding `Cc1cc(NC(=O)NC(=O)c2ccccc2N(C)C)ccc1Oc1ncc(Br)cn1` [Compound 1], the figures for the “rate of apoptosis, MCF-7 cells” value in the experiment on MCF-7 cells (10 nM), in the experiment on MCF-7 cells (30 nM) and in the experiment with MCF-7 cells (100 nM) were 16.1%, 19.5% and 27.7%, respectively.

With `Nc1ccccc1C(=O)NC(=O)Nc1ccc(Sc2ncc(Br)cn2)cc1` [Compound 7d, 1-(2-Aminobenzoyl)-3-[4-(5-bromopyrimidin-2-ylsulfanyl)phenyl]urea], in the experiment on Panc430 (sulfide versus ether link), the “increase in activity of 7d compared to 7c, Panc430” value is listed as over 50 fold. Also, the “times more potent than compound 1, pancreatic cell lines” value in [1] is on record as 20 time. Moreover, the “increase in activity of 7d compared to 7c, LAPC-4” value in the experiment with LAPC-4 (sulfide versus ether link) is on record as 7 fold. Also, the “times more potent than compound 1, prostate cancer cell lines” value in experiment [3] was found to be 20 times. For the same molecule, in the experiment on Miapaca2 (sulfide versus ether link), the “increase in activity of 7d compared to 7c, Miapaca2” value stood at 9 fold. In the experiment on Panc203 (sulfide versus ether link), the “increase in activity of 7d compared to 7c, Panc203” value was over 117 fold. In addition, the “increase in activity of 7d compared to 7c, Panc1” value in the experiment on Panc1 (sulfide versus ether link) is 39 fold.
